# Measured values: paper PMC12064818, “A general assay platform to study protein pharmacology using ligand-dependent structural dynamics” (Nature Communications, 2025)
# Molecular target: T1, FLuc-C-HiBiT (Photinus pyralis, UniProt P08659)
# T1 construct: firefly luciferase with C-terminal HiBiT tag, E. coli expressed
# Experiment: biochemical
# Conditions: enzyme activity, 10 uM ATP; read-out: IC50 or SDR50 (mM) / FLuc E
# T1 sequence (P08659 whole entry, looked up): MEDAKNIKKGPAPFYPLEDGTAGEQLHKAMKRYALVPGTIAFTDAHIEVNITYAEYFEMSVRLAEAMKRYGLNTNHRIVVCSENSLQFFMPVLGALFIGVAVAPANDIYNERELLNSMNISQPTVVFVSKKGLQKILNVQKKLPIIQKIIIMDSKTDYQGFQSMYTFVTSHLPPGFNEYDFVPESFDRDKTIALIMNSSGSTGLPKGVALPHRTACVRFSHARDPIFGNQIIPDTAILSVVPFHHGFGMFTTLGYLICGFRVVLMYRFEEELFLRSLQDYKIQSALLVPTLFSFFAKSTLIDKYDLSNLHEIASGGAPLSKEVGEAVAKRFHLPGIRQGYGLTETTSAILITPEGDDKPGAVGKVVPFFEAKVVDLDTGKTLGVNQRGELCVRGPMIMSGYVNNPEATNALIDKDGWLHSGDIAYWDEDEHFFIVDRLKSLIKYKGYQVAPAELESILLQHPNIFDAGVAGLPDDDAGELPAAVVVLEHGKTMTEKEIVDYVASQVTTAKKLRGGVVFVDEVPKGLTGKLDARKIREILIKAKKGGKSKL
row,Structure (SMILES),IC50 [µM]
1,COc1ccc(CCNC(=O)C2CCCN(c3nc4c(C)cc(C)cc4s3)C2)cc1OC (centres unmarked) [NCGC00113075-01],5.56
2,CCOc1cc2sc(N3CCC(C(=O)Nc4ccc(C(C)C)cc4)CC3)nc2cc1Br [NCGC00113423-01],7
3,Cc1c(C(=O)NCc2cccc(Br)c2)oc2ccc3c(c12)C(=O)CC(C)(C)O3 [NCGC00113428-01],11.1
4,O=C(c1ccc(CSc2nc3ccncc3n2Cc2ccccc2F)cc1)N1CCCCC1 [NCGC00113496-01],14
5,Cc1cccc(CNC(=O)Cc2csc3ccccc23)c1 [NCGC00113581-01],> 30
6,COc1ccccc1CNC(=O)c1ccc2nc(N3CCCCC3)sc2c1 [NCGC00113612-01],> 30
7,CCOC(=O)c1ccc(NC(=O)c2nsc3ccccc23)cc1 [NCGC00113675-01],3.51
8,COc1ccc(CNC(=O)Cn2cccc2C(=O)c2ccccc2C)cc1 [NCGC00113808-01],> 30
9,O=C(Nc1ccccc1F)c1ccc(-c2ccccc2)s1 [NCGC00114318-01],2.48
10,Cc1cccc(NC(=O)c2ccc(-c3ccccc3)s2)c1 [NCGC00114320-01],2.79
11,Cc1ccc(NC(=O)c2ccc3snnc3c2)cc1C [NCGC00114783-01],8.81
12,C#CCn1c(/C=C/c2ccc(Cl)cc2)nc2ccccc21 [NCGC00114864-01],0.624
13,COc1ccc(-c2nc3c4cnn(-c5ccccc5F)c4ncn3n2)cc1 [NCGC00115088-01],0.785
14,COc1cccc(-c2noc(COc3ccccc3Cl)n2)c1 [NCGC00115123-01],11.1
15,Brc1ccccc1-n1ncc2c1ncn1nc(Cc3ccccc3)nc21 [NCGC00115124-01],> 30
16,COc1ccc(C(=O)Nc2noc3ccccc23)cc1 [NCGC00115156-01],0.881
17,COc1cccc(NC(=O)CCc2nc(-c3ccc(C(C)(C)C)cc3)no2)c1 [NCGC00115609-01],7
18,O=C(Nc1onc2c1CCCC2)c1ccccc1 [NCGC00115884-01],11.1
19,Cc1ccc(C(=O)Nc2onc3c2CCCC3)cc1 [NCGC00115902-01],0.989
20,COc1ccc(C(=O)Nc2onc3c2CCCC3)cc1 [NCGC00115906-01],1.97
21,COc1ccccc1C(=O)Nc1onc2c1CCCC2 [NCGC00115908-01],9.89
22,CCOc1ccc(C(=O)Nc2onc3c2CCCC3)cc1 [NCGC00115912-01],1.97
23,CC(C)COc1ccc(C(=O)Nc2onc3c2CCCC3)cc1 [NCGC00115916-01],1.97

row,Structure (SMILES),IC50 [µM]
1,CC(=O)Nc1ccc(NC(=O)CCCc2nc(-c3ccc(C(C)(C)C)cc3)no2)cc1 [NCGC00116112-01],4.95
2,COc1cccc(OCc2nc3ccccc3n2Cc2ccccc2)c1 [NCGC00116123-01],> 30
3,CC(=O)c1nn(-c2ccc(OC(F)(F)F)cc2)nc1Nc1ccccc1 [NCGC00116600-01],0.7
4,CC(=O)c1cccc(Nc2nn(-c3ccc(OC(F)(F)F)cc3)nc2C(C)=O)c1 [NCGC00116630-01],4.42
5,Cc1ccc(C2=Nc3cc(Cl)ccc3NC(c3ccccc3)=N2)cc1 [NCGC00116648-01],> 30
6,CCOc1ccc(-n2nc(CO)c(C(=O)NCc3ccccn3)n2)cc1 [NCGC00117131-01],11.1
7,CCOc1ccc(-n2nc(CO)c(C(=O)NCc3cccc(OC)c3)n2)cc1 [NCGC00117153-01],11.1
8,CCc1ccc(-n2nc(CO)c(C(=O)NC)n2)cc1 [NCGC00117187-01],17.6
9,Cc1cccc(OCCn2nnc3sc4c(c3c2=O)CCCC4)c1 [NCGC00117282-01],12.4
10,Cc1ccc2sc(-c3ccc(N)cc3)nc2c1 [NCGC00117377-01],0.279
11,CCCc1nn2cc(-c3ccc(C)c(C)c3)nc2s1 [NCGC00117454-01],0.624
12,CCCCCc1nn2cc(-c3ccccc3)nc2s1 [NCGC00117458-01],0.624
13,CCC(CC)c1nn2cc(-c3ccccc3)nc2s1 [NCGC00117460-01],0.881
14,CCOc1ccc(-c2cn3nc(CC(C)C)sc3n2)cc1 [NCGC00117462-01],4.95
15,COc1cccc(-c2cn3ncsc3n2)c1 [NCGC00117781-01],11.1
16,COc1ccc(OCC(=O)Nc2nc(-c3ccc(Br)cc3)ns2)cc1 [NCGC00118248-01],> 30
17,Cc1ccc(/C=C/C(=O)N2CCC(c3nc4ccccc4o3)CC2)cc1 [NCGC00118334-01],11.1
18,COC(=O)c1c(-c2cccs2)csc1NC(=O)c1ccc(Br)cc1 [NCGC00118335-01],11.1
19,COC(=O)c1c(-c2cccs2)csc1NC(=O)c1ccc(C)cc1 [NCGC00118339-01],15.7
20,Cc1cccc(C(=O)Nc2nc3c(s2)CCCC3)c1 [NCGC00118410-01],2.48
21,O=C(Nc1nc2c(s1)CCCC2)c1ccccc1F [NCGC00118438-01],0.556
22,COc1cccc(C(=O)Nc2ccc3nc(SCC(=O)N4CCOCC4)sc3c2)c1 [NCGC00118677-01],9.89
23,Cc1cccc(NC(=O)c2cc(-c3ccc4c(c3)OCCO4)on2)c1 [NCGC00118828-01],0.442

row,Structure (SMILES),IC50 [µM]
1,O=C(Nc1cccc(Cl)c1)c1cc(-c2ccc3c(c2)OCCO3)on1 [NCGC00118845-01],0.624
2,CC(=O)Nc1ccc(NC(=O)c2cc(-c3ccc4c(c3)OCCO4)on2)cc1 [NCGC00118853-01],0.624
3,O=C(Nc1cccc(Br)c1)c1cc(-c2ccc3c(c2)OCCO3)on1 [NCGC00118911-01],0.989
4,Cc1ccc(Cl)cc1NC(=O)c1cc(-c2ccc3c(c2)OCCO3)on1 [NCGC00118917-01],1.76
5,Cc1c(NC(=O)C(C)(C)C)cccc1-c1nc2ccccc2s1 [NCGC00118970-01],5.56
6,COc1ccc(OCC(=O)Nc2cccc(-c3nc4ccccc4s3)c2C)cc1 [NCGC00118972-01],7.85
7,Cc1c(N[S+](C)(=O)[O-])cccc1-c1nc2ccccc2s1 [NCGC00118990-01],9.89
8,CC(C)(C)C(=O)Nc1ccc(-c2nc3ccccc3s2)cc1 [NCGC00118992-01],0.0197
9,O=C(COc1ccccc1F)Nc1ccc(-c2nc3ccccc3s2)cc1 [NCGC00118994-02],> 30
10,C[S+](=O)([O-])Nc1ccc(-c2nc3ccccc3s2)cc1 [NCGC00118996-01],2.21
11,Cc1ccc(C(=O)Nc2ccc3oc(-c4ccccc4C)nc3c2)cc1 [NCGC00118998-01],> 30
12,COc1ccc(-c2nc3ccc(N[S+](C)(=O)[O-])cc3o2)cc1 [NCGC00119094-01],5.56
13,O=C(COc1ccccc1[N+](=O)[O-])Nc1ccc(-c2nc3ccccc3s2)cc1 [NCGC00119127-01],> 30
14,CC(C)Oc1ccc(C(=O)Nc2ccc(-c3nc4ccccc4s3)cc2)cc1 [NCGC00119129-01],> 30
15,COc1ccccc1OC(C)C(=O)Nc1ccc(-c2nc3ccccc3s2)cc1 (centres unmarked) [NCGC00119131-01],> 30
16,CC(Oc1ccccc1F)C(=O)Nc1ccc(-c2nc3ccccc3s2)cc1 (centres unmarked) [NCGC00119149-01],8.81
17,Cc1cc(C)cc(OCC(=O)Nc2ccc(-c3nc4ccccc4s3)cc2)c1 [NCGC00119151-01],> 30
18,Cc1ccc(OCC(=O)Nc2cccc(-c3nc4ccccc4s3)c2)cc1 [NCGC00119153-02],9.89
19,O=C(COc1ccccc1[N+](=O)[O-])Nc1cccc(-c2nc3ccccc3s2)c1 [NCGC00119155-01],> 30
20,COc1ccccc1OC(C)C(=O)Nc1cccc(-c2nc3ccccc3s2)c1 (centres unmarked) [NCGC00119157-01],8.81
21,CCCCC(=O)Nc1cccc(-c2nc3ccccc3s2)c1 [NCGC00119159-01],11.1
22,CCOc1ccccc1C(=O)Nc1cccc(-c2nc3ccccc3s2)c1 [NCGC00119161-01],11.1
23,CCC(CC)C(=O)Nc1cccc(-c2nc3ccccc3s2)c1 [NCGC00119163-01],15.7

row,Structure (SMILES),IC50 [µM]
1,CCOc1ccccc1C(=O)Nc1nc2c(s1)CC(C)CC2 (centres unmarked) [NCGC00119172-01],4.42
2,Cc1c(C(=O)Nc2cccc(-c3nc4ccccc4s3)c2)oc2ccccc12 [NCGC00119181-01],> 30
3,Cc1c(C(=O)Nc2cccc(-c3nc4ccccc4s3)c2)oc2ccc(F)cc12 [NCGC00119183-01],> 30
4,Cc1ccc2oc(C(=O)Nc3cccc(-c4nc5ccccc5s4)c3)c(C)c2c1 [NCGC00119185-01],9.89
5,COc1ccccc1-c1noc(-c2ccc(N3CCN(C)CC3)c([N+](=O)[O-])c2)n1 [NCGC00119222-01],4.95
6,CC(C)(C)C1CCc2nc(NC(=O)c3cccc(Cl)c3)sc2C1 (centres unmarked) [NCGC00119231-01],2.48
7,COc1ccc(-c2noc(-c3ccc(N4CCN(C)CC4)c([N+](=O)[O-])c3)n2)cc1 [NCGC00119282-01],15.7
8,Cc1ccccc1-c1noc(-c2ccc(N3CCCC3)c([N+](=O)[O-])c2)n1 [NCGC00119417-01],11.1
9,O=C(COc1ccccc1)Nc1nnc([S+](=O)([O-])Nc2ccccc2)s1 [NCGC00120845-01],14
10,Cc1cccc(CCNC(=O)c2sc3nc4n(c(=O)c3c2C)CCCC4)c1 [NCGC00121158-01],> 30
11,Cc1ccc(NC(=O)c2oc3ccc4c(c3c2C)C(=O)CC(C)(C)O4)c(C)c1 [NCGC00122260-01],9.89
12,Cc1nnc(SCc2ccccc2)c2cc3sccc3n12 [NCGC00122277-01],14
13,CCOc1cccc2cc(-c3nc(-c4ccccc4C)no3)c(=O)oc12 [NCGC00123322-01],3.13
14,O=c1oc2ccc(F)cc2cc1-c1nc(-c2cccs2)no1 [NCGC00123380-01],3.13
15,Cc1ccc2oc(=O)c(-c3nc(-c4cccs4)no3)cc2c1 [NCGC00123382-01],> 30
16,COc1ccc(-c2cn3nc(N4CCCC(C(=O)NCc5ccccc5OC)C4)sc3n2)cc1 (centres unmarked) [NCGC00123654-01],11.1
17,O=C(NCc1cccc(Cl)c1)C1CCCN(c2nn3cc(-c4ccc(F)cc4)nc3s2)C1 (centres unmarked) [NCGC00123714-01],8.81
18,CCc1ccc(CNC(=O)C2CCCN(c3nn4cc(-c5ccc(F)cc5)nc4s3)C2)cc1 (centres unmarked) [NCGC00123722-01],> 30
19,Cc1ccc(CSc2nc3cccnc3n2Cc2ccc(C(=O)NCc3ccco3)cc2)cc1 [NCGC00123842-01],0.624
20,Cc1ccc(CSc2nc3cccnc3n2Cc2ccc(C(=O)NC3CC3)cc2)cc1 [NCGC00123844-01],0.394
